Source: patent publication US20250145665A1, “MACROCYCLIC PEPTIDES USEFUL AS MODULATORS OF TNF ALPHA” (Bristol-Myers Squibb Company, priority 2023, published 2025)
Starred links: 1 amine or outer side, 2 acyl side, 3 side chain; linkers in the order of their positions; H or OH if unused. Positions of bridges follow the written chain, without caps; N, C: chain ends. Non-standard residues stand in square brackets, D forms with d. Residues, ends and D or L forms follow the SMILES beside them. *: point of attachment. Bip(4'-NHCO-C6H4-3-CH2COOH) = N[C@@H](Cc1ccc(-c2ccc(NC(=O)c3cccc(CC(=O)O)c3)cc2)cc1)C(=O)O; Bip(4'-NHCO-C6H4-4-CH2COOH) = N[C@@H](Cc1ccc(-c2ccc(NC(=O)c3ccc(CC(=O)O)cc3)cc2)cc1)C(=O)O; Bip(4'-(3-HOOC-benzamido)) = N[C@@H](Cc1ccc(-c2ccc(NC(=O)c3cccc(C(=O)O)c3)cc2)cc1)C(=O)O; dArg(ω-(2S)-2,3-diOHpropyl) = N=C(NCCC[C@@H](N)C(=O)O)NC[C@H](O)CO; Bip(4'-NH) = O=C([C@H](Cc1ccc(-c2ccc(N[*:3])cc2)cc1)N[*:1])[*:2]; Bip(4'-CONHMe) = CNC(=O)c1ccc(-c2ccc(C[C@H](N)C(=O)O)cc2)cc1; Indazole3carbonyl(1-CH2COOH) = O=C(O)Cn1nc(C(=O)*)c2ccccc21; Bip(4'-COOH) = N[C@@H](Cc1ccc(-c2ccc(C(=O)O)cc2)cc1)C(=O)O; Indole3carbonyl(1-CH2COOH) = O=C(O)Cn1cc(C(=O)*)c2ccccc21; X36 = N=C(NCCC[C@@H](N[*:1])C(=O)[*:2])NCc1cccc(C(=O)O)c1; dArg(ω-Bn) = N=C(NCCC[C@@H](N)C(=O)O)NCc1ccccc1; Ala(morpholin-4-yl) = N[C@@H](CN1CCOCC1)C(=O)O; Benzoyl(3-OCH2COOH) = O=C(O)COc1cccc(C(=O)*)c1; Phe(3-CONH2) = NC(=O)c1cccc(C[C@H](N)C(=O)O)c1; Bip = N[C@@H](Cc1ccc(-c2ccccc2)cc1)C(=O)O; Cha = N[C@@H](CC1CCCCC1)C(=O)O; Sar = CNCC(=O)O

biological target: TNFα (Homo sapiens, UniProt P01375); test: TNF-Induced HEK-Blue Assay; format: cell-based; conditions: not given
Sequence (P01375 77-233 limits assumed): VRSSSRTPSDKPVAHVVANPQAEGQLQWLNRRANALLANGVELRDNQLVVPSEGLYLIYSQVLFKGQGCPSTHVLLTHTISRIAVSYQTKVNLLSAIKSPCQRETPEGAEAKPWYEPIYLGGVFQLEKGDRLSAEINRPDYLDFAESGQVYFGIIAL

Compound	IC50 [nM]
CC(C)C[C@@H]1NC(=O)[C@H](Cc2ccc(O)cc2)NC(=O)[C@H](C(C)C)NC(=O)[C@@H]2CCCN2C(=O)[C@H](C(C)C)NC(=O)[C@@H](CCCNC(=N)NCc2ccccc2)NC(=O)[C@H](CC(=O)O)NC(=O)[C@@H]2CCCN2C(=O)CN(C)C(=O)[C@H](Cc2ccc(-c3ccc(NC(=O)c4cn(CC(=O)O)c5ccccc45)cc3)cc2)NC(=O)[C@H](Cc2ccc(-c3ccccc3)cc2)NC(=O)[C@H](CN2CCOCC2)NC(=O)CSC[C@@H](C(=O)NCC(N)=O)NC1=O [Example 531] ({CH2CO}-[Ala(morpholin-4-yl)][Bip][Bip(4'-NH)](Indole3carbonyl(1-CH2COOH))[Sar]PD[dArg(ω-Bn)]VPVYLCG-NH2; thioether N-13)	< 50
CC[C@H](C)[C@@H]1NC(=O)[C@@H](CCCNC(=N)NCc2ccccc2)NC(=O)[C@H](CC(=O)O)NC(=O)[C@@H]2CCCN2C(=O)CN(C)C(=O)[C@H](Cc2ccc(-c3ccc(NC(=O)c4cn(CC(=O)O)c5ccccc45)cc3)cc2)NC(=O)[C@H](Cc2ccc(-c3ccccc3)cc2)NC(=O)[C@H](CN2CCOCC2)NC(=O)CSC[C@@H](C(=O)NCC(N)=O)NC(=O)[C@H](CC(C)C)NC(=O)[C@H](Cc2cnc[nH]2)NC(=O)[C@H](C(C)C)NC(=O)[C@@H]2CCCN2C1=O [Example 533] ({CH2CO}-[Ala(morpholin-4-yl)][Bip][Bip(4'-NH)](Indole3carbonyl(1-CH2COOH))[Sar]PD[dArg(ω-Bn)]IPVHLCG-NH2; thioether N-13)	< 50
CC(C)C[C@@H]1NC(=O)[C@H](Cc2cccc(C(N)=O)c2)NC(=O)[C@H](C(C)C)NC(=O)[C@@H]2CCCN2C(=O)[C@H](C(C)C)NC(=O)[C@@H](CCCNC(=N)NCc2ccccc2)NC(=O)[C@H](CC(=O)O)NC(=O)[C@@H]2CCCN2C(=O)CN(C)C(=O)[C@H](Cc2ccc(-c3ccc(NC(=O)c4cn(CC(=O)O)c5ccccc45)cc3)cc2)NC(=O)[C@H](Cc2ccc(-c3ccccc3)cc2)NC(=O)[C@H](CN2CCOCC2)NC(=O)CSC[C@@H](C(=O)NCC(N)=O)NC1=O [Example 535] ({CH2CO}-[Ala(morpholin-4-yl)][Bip][Bip(4'-NH)](Indole3carbonyl(1-CH2COOH))[Sar]PD[dArg(ω-Bn)]VPV[Phe(3-CONH2)]LCG-NH2; thioether N-13)	< 50
CC(C)C[C@@H]1NC(=O)[C@H](CCCNC(=N)N)NC(=O)[C@H](C(C)C)NC(=O)[C@@H]2CCCN2C(=O)[C@H](C(C)C)NC(=O)[C@@H](CCCNC(=N)NC[C@H](O)CO)NC(=O)[C@H](CC(=O)O)NC(=O)[C@@H]2CCCN2C(=O)CN(C)C(=O)[C@H](Cc2ccc(-c3ccc(NC(=O)c4cn(CC(=O)O)c5ccccc45)cc3)cc2)NC(=O)[C@H](Cc2ccc(-c3ccccc3)cc2)NC(=O)[C@H](CN2CCOCC2)NC(=O)CSC[C@@H](C(=O)NCC(N)=O)NC1=O [Example 540] ({CH2CO}-[Ala(morpholin-4-yl)][Bip][Bip(4'-NH)](Indole3carbonyl(1-CH2COOH))[Sar]PD[dArg(ω-(2S)-2,3-diOHpropyl)]VPVRLCG-NH2; thioether N-13)	< 50
CC(C)C[C@@H]1NC(=O)[C@H](Cc2ccc(O)cc2)NC(=O)[C@H](C(C)C)NC(=O)[C@@H]2CCCN2C(=O)[C@H](C(C)C)NC(=O)[C@@H](CCCNC(=N)NC[C@H](O)CO)NC(=O)[C@H](CC(=O)O)NC(=O)[C@@H]2CCCN2C(=O)CN(C)C(=O)[C@H](Cc2ccc(-c3ccc(NC(=O)c4nn(CC(=O)O)c5ccccc45)cc3)cc2)NC(=O)[C@H](Cc2ccc(-c3ccc(C(=O)O)cc3)cc2)NC(=O)[C@H](CC2CCCCC2)NC(=O)CSC[C@@H](C(=O)NCC(N)=O)NC1=O [Example 545] ({CH2CO}-[Cha][Bip(4'-COOH)][Bip(4'-NH)](Indazole3carbonyl(1-CH2COOH))[Sar]PD[dArg(ω-(2S)-2,3-diOHpropyl)]VPVYLCG-NH2; thioether N-13)	50 to 200
CC(C)C[C@@H]1NC(=O)[C@H](Cc2cccc(C(N)=O)c2)NC(=O)[C@H](C(C)C)NC(=O)[C@@H]2CCCN2C(=O)[C@H](C(C)C)NC(=O)[C@@H](CCCNC(=N)NC[C@H](O)CO)NC(=O)[C@H](CC(=O)O)NC(=O)[C@H](Cc2ccc(O)cc2)NC(=O)CN(C)C(=O)[C@H](Cc2ccc(-c3ccc(NC(=O)c4nn(CC(=O)O)c5ccccc45)cc3)cc2)NC(=O)[C@H](Cc2ccc(-c3ccccc3)cc2)NC(=O)[C@H](CN2CCOCC2)NC(=O)CSC[C@@H](C(=O)NCC(N)=O)NC1=O [Example 546] ({CH2CO}-[Ala(morpholin-4-yl)][Bip][Bip(4'-NH)](Indazole3carbonyl(1-CH2COOH))[Sar]YD[dArg(ω-(2S)-2,3-diOHpropyl)]VPV[Phe(3-CONH2)]LCG-NH2; thioether N-13)	< 50
CC(C)C[C@@H]1NC(=O)[C@H](Cc2cccc(C(N)=O)c2)NC(=O)[C@H](C(C)C)NC(=O)[C@@H]2CCCN2C(=O)[C@H](C(C)C)NC(=O)[C@@H](CCCNC(=N)NC[C@H](O)CO)NC(=O)[C@H](CC(=O)O)NC(=O)[C@H](Cc2ccc(O)cc2)NC(=O)CN(C)C(=O)[C@H](Cc2ccc(-c3ccc(NC(=O)c4cn(CC(=O)O)c5ccccc45)cc3)cc2)NC(=O)[C@H](Cc2ccc(-c3ccccc3)cc2)NC(=O)[C@H](CN2CCOCC2)NC(=O)CSC[C@@H](C(=O)NCC(N)=O)NC1=O [Example 547] ({CH2CO}-[Ala(morpholin-4-yl)][Bip][Bip(4'-NH)](Indole3carbonyl(1-CH2COOH))[Sar]YD[dArg(ω-(2S)-2,3-diOHpropyl)]VPV[Phe(3-CONH2)]LCG-NH2; thioether N-13)	< 50

same assay, conditions: HEK-Blue-CD40L cells, NF-kB-driven secreted alkaline phosphatase reporter; TNFα 0.5 ng/ml; 18 h; read-out: TNF induced HEK-Blue assay IC50 value

Compound	IC50 [nM]
CC[C@H](C)[C@@H]1NC(=O)[C@@H](CCCNC(=N)N)NC(=O)[C@H](CC(=O)O)NC(=O)[C@H](Cc2cnc[nH]2)NC(=O)CN(C)C(=O)[C@H](Cc2ccc(-c3ccc(NC(=O)c4cccc(CC(=O)O)c4)cc3)cc2)NC(=O)[C@H](Cc2ccc(-c3ccc(C(=O)NC)cc3)cc2)NC(=O)[C@H](CC2CCCCC2)NC(=O)CSC[C@@H](C(=O)NCC(N)=O)NC(=O)[C@H](CC(C)C)NC(=O)[C@H](Cc2cnc[nH]2)NC(=O)[C@H](C(C)C)NC(=O)[C@@H]2CCCN2C1=O [Example 527] ({CH2CO}-[Cha][Bip(4'-CONHMe)][Bip(4'-NHCO-C6H4-3-CH2COOH)][Sar]HD[dR]IPVHLCG-NH2; thioether N-13)	< 50
CC[C@H](C)[C@@H]1NC(=O)[C@@H](CCCNC(=N)N)NC(=O)[C@H](CC(=O)O)NC(=O)[C@H](Cc2cnc[nH]2)NC(=O)CN(C)C(=O)[C@H](Cc2ccc(-c3ccc(NC(=O)c4ccc(CC(=O)O)cc4)cc3)cc2)NC(=O)[C@H](Cc2ccc(-c3ccc(C(=O)NC)cc3)cc2)NC(=O)[C@H](CC2CCCCC2)NC(=O)CSC[C@@H](C(=O)NCC(N)=O)NC(=O)[C@H](CC(C)C)NC(=O)[C@H](Cc2cnc[nH]2)NC(=O)[C@H](C(C)C)NC(=O)[C@@H]2CCCN2C1=O [Example 528] ({CH2CO}-[Cha][Bip(4'-CONHMe)][Bip(4'-NHCO-C6H4-4-CH2COOH)][Sar]HD[dR]IPVHLCG-NH2; thioether N-13)	< 50
CC[C@H](C)[C@@H]1NC(=O)[C@@H](CCCNC(=N)N)NC(=O)[C@H](CC(=O)O)NC(=O)[C@H](Cc2cnc[nH]2)NC(=O)CN(C)C(=O)[C@H](Cc2ccc(-c3ccc(NC(=O)c4cccc(C(=O)O)c4)cc3)cc2)NC(=O)[C@H](Cc2ccc(-c3ccc(C(=O)O)cc3)cc2)NC(=O)[C@H](CC2CCCCC2)NC(=O)CSC[C@@H](C(=O)NCC(N)=O)NC(=O)[C@H](CC(C)C)NC(=O)[C@H](Cc2cnc[nH]2)NC(=O)[C@H](C(C)C)NC(=O)[C@@H]2CCCN2C1=O [Example 530] ({CH2CO}-[Cha][Bip(4'-COOH)][Bip(4'-(3-HOOC-benzamido))][Sar]HD[dR]IPVHLCG-NH2; thioether N-13)	< 50
CC(C)C[C@@H]1NC(=O)[C@H](CCCNC(=N)N)NC(=O)[C@H](C(C)C)NC(=O)[C@@H]2CCCN2C(=O)[C@H](C(C)C)NC(=O)[C@@H](CCCNC(=N)NC[C@H](O)CO)NC(=O)[C@H](CC(=O)O)NC(=O)[C@@H]2CCCN2C(=O)CN(C)C(=O)[C@H](Cc2ccc(-c3ccc(NC(=O)c4cccc(CC(=O)O)c4)cc3)cc2)NC(=O)[C@H](Cc2ccc(-c3ccccc3)cc2)NC(=O)[C@H](CN2CCOCC2)NC(=O)CSC[C@@H](C(=O)NCC(N)=O)NC1=O [Example 537] ({CH2CO}-[Ala(morpholin-4-yl)][Bip][Bip(4'-NHCO-C6H4-3-CH2COOH)][Sar]PD[dArg(ω-(2S)-2,3-diOHpropyl)]VPVRLCG-NH2; thioether N-13)	50 to 200
CC(C)C[C@@H]1NC(=O)[C@H](CCCNC(=N)N)NC(=O)[C@H](C(C)C)NC(=O)[C@@H]2CCCN2C(=O)[C@H](C(C)C)NC(=O)[C@@H](CCCNC(=N)NC[C@H](O)CO)NC(=O)[C@H](CC(=O)O)NC(=O)[C@@H]2CCCN2C(=O)CN(C)C(=O)[C@H](Cc2ccc(-c3ccc(NC(=O)c4cccc(OCC(=O)O)c4)cc3)cc2)NC(=O)[C@H](Cc2ccc(-c3ccccc3)cc2)NC(=O)[C@H](CN2CCOCC2)NC(=O)CSC[C@@H](C(=O)NCC(N)=O)NC1=O [Example 538] ({CH2CO}-[Ala(morpholin-4-yl)][Bip][Bip(4'-NH)](Benzoyl(3-OCH2COOH))[Sar]PD[dArg(ω-(2S)-2,3-diOHpropyl)]VPVRLCG-NH2; thioether N-13)	200 to 2000
CC(C)C[C@@H]1NC(=O)[C@H](CCCNC(=N)N)NC(=O)[C@H](C(C)C)NC(=O)[C@@H]2CCCN2C(=O)[C@H](C(C)C)NC(=O)[C@@H](CCCNC(=N)NCc2cccc(C(=O)O)c2)NC(=O)[C@H](CC(=O)O)NC(=O)[C@@H]2CCCN2C(=O)CN(C)C(=O)[C@H](Cc2ccc(-c3ccc(NC(=O)c4cccc(CC(=O)O)c4)cc3)cc2)NC(=O)[C@H](Cc2ccc(-c3ccccc3)cc2)NC(=O)[C@H](CN2CCOCC2)NC(=O)CSC[C@@H](C(=O)NCC(N)=O)NC1=O [Example 543] ({CH2CO}-[Ala(morpholin-4-yl)][Bip][Bip(4'-NHCO-C6H4-3-CH2COOH)][Sar]PD[X36]VPVRLCG-NH2; thioether N-13)	200 to 2000
CC(C)C[C@@H]1NC(=O)[C@H](CCCNC(=N)N)NC(=O)[C@H](C(C)C)NC(=O)[C@@H]2CCCN2C(=O)[C@H](C(C)C)NC(=O)[C@@H](CCCNC(=N)NCc2cccc(C(=O)O)c2)NC(=O)[C@H](CC(=O)O)NC(=O)[C@@H]2CCCN2C(=O)CN(C)C(=O)[C@H](Cc2ccc(-c3ccc(NC(=O)c4cccc(OCC(=O)O)c4)cc3)cc2)NC(=O)[C@H](Cc2ccc(-c3ccccc3)cc2)NC(=O)[C@H](CN2CCOCC2)NC(=O)CSC[C@@H](C(=O)NCC(N)=O)NC1=O [Example 544] ({CH2CO}-[Ala(morpholin-4-yl)][Bip][Bip(4'-NH)](Benzoyl(3-OCH2COOH))[Sar]PD[X36]VPVRLCG-NH2; thioether N-13)	200 to 2000
